Like-named read-outs stand apart in the source and are kept apart here.
Experiments:
[1] = tested on: rats after MCA occlusion and reperfusion; conditions: for brain damage (% of total volume): control 24.8±2%; for oedema (% of total volume): control 1.01±0.03
Method: This group of animals went through the same procedure as the above-mentioned SAH animals. Two hours after the MCA occlusion, the rat was re-anesthetized to allow for withdrawal of the filament and subsequent reperfusion of the brain. In conjunction with the reperfusion (0 h), at 6 h or at 12 h afterwards, and at 24 h after the start of the reperfusion in the same animal, the rats were injected intraperitoneal with 30 mg/kg U0126 dissolved in dimethylsulfoxide (DMSO). […] Control rats were injected with an equal volume of DMSO at the same time points.

rats with induced SAH = assay: Cortical blood flow measured with Laser Doppler; type: in vivo, rat; conditions: intracisternal injection
Source text: Subarachnoid hemorrhage was induced by a model originally devised by Svendgaard et al and carefully described by Prunell et al (2003). Male Sprague-Dawley rats (350-400 g) were anaesthetized using 5% halothane (Halocarbon Laboratories, River Edge, N.J.) in N2O/O2 (30:70). The rat was intubated and artificially ventilated with inhalation of 0.5-1.5% halothane in N2O/O2 (70:30) during the surgical procedure. The depth of anaesthesia was carefully monitored and the respiration checked by regularly withdrawing arterial blood samples for blood gas analysis (Radiometer, Copenhagen, Denmark). An electric temperature probe was inserted into the rectum of the rat to record the temperature, which was maintained at 37° C. An arterial catheter to measure blood pressure was placed in the tail artery and a catheter to monitor intracranial pressure (ICP) was placed in the subarachnoid space under the subocciptal membrane. At either side of the skull, 3 mm from the midline and 4 mm anteriorly from the bregma, holes were drilled through the skull bone down to dura mater (without perforation) allowing the placement of two laser-Doppler flow probes to measure cortical CBF. Finally, a 27G blunt canula with side hole was introduced 6.5 mm anterior to bregma in the midline at an angle of 30° to the vertical. […]

pERK1/2 = assay: Immunohistochemistry of cerebral arteries after SAH; type: in vivo, rat; conditions: smooth muscle cells; sham 100±3%, SAH 188±7%
AT1 receptor mRNA = assay: Real-time PCR of receptor mRNA in cerebral arteries after SAH; type: in vivo, rat; conditions: MCA, BA and circle of Willis grouped; SAH rats

N#CC(=C(/N)Sc1ccccc1N)/C(C#N)=C(\N)Sc1ccccc1N [U0126]
brain damage (% of total volume) ([1]; 30 mg/kg i.p. starting after 12 h): 20.3±1%
brain damage (% of total volume) ([1]; 30 mg/kg i.p. starting at 0 h after MCAO reperfusion): 11.8±2%
brain damage (% of total volume) ([1]; 30 mg/kg i.p. starting at 6 h): 14.6±3%
lowest dose that elicited a clear significant effect on infarct volume ([1]; intraperitoneal, doses 10 to 100 mg/kg evaluated, preliminary experiments): 30 mg/kg
oedema (% of total volume) ([1]; treatment starting at 0 h): 1.05±0.02 % of total volume
oedema (% of total volume) ([1]; treatment starting at 6 h): 0.98±0.02 % of total volume
oedema (% of total volume) ([1]; treatment starting at 12 h): 1.02±0.04 % of total volume

Cn1cc(C2=C(c3cn(CCCN)c4ccccc34)C(=O)NC2=O)c2ccccc21 [RO-31-7549]
effect of injection alone on cortical blood flow measured with Laser Doppler (rats with induced SAH): no effect

Oc1cc(-c2nc(-c3ccccc3)[nH]c2-c2ccncc2)ccc1Cl [SB386023-b]
pERK1/2 level, fluorescence compared to sham (pERK1/2): 102±5%
enhanced expression of AT1 receptor mRNA (AT1 receptor mRNA): inhibited
